For the assay, the target named is T1, Axl (Homo sapiens, UniProt P30530).
T1 construct: endogenous in cells; host or cells: HeLa cells
T1 sequence (P30530 26-894): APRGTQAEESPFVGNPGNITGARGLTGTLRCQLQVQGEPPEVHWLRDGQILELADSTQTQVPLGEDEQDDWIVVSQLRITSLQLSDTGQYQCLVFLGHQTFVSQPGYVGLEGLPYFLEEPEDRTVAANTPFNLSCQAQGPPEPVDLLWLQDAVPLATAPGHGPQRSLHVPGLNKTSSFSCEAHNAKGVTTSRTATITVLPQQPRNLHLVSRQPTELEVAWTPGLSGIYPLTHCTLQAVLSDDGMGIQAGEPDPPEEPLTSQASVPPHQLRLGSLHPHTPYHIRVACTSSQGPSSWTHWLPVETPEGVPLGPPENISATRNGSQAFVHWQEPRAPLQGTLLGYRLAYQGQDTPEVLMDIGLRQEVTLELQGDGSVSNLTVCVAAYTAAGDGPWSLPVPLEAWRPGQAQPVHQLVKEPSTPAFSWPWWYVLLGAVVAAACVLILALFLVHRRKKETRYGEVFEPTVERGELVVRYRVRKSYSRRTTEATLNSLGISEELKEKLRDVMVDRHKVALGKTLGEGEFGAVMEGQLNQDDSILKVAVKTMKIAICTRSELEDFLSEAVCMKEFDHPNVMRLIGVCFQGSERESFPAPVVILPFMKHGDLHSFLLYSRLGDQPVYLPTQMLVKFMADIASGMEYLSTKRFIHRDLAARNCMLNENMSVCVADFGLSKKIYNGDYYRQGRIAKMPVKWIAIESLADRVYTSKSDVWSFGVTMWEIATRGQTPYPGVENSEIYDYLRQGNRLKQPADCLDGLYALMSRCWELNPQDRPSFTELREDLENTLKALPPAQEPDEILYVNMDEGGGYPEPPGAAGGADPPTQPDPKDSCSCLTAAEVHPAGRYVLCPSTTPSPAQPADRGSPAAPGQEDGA
The experiment in a line: Phospho-Akt in-cell Western assay (inhibition of Axl activity, Axl-antibody cross-linking stimulation). The note with it: Hela cells, phospho-Akt readout; compounds of formula (Ia), Table 1. It counts as cell-based. How it is done: The compounds of the invention were tested in the following assay for their ability to inhibit Axl activity.
Phospho-Akt in-Cell Western Assay
• Cell culture plate: 96 well assay plate (Corning 3610), white, clear bottom, tissue-culture treated. • Cells: Hela cells. • Starvation medium: For Axl stimulation: 0.5% FCS (fetal calf serum) in DMEM, plus Axl/Fc (extracellular domain of AXL fused to immunoglobulin Fc region) (R&D, 154-AL) 500 ng/mL. • For EGF (epidermal growth factor) stimulation: 0.5% FCS in DMEM (Dulbecco's modified Eagles medium). • Poly-L-Lysine 0.01% solution (the working solution): 10 μg/ml, dilute In PBS (phosphate buffered saline). • Axl antibody cross-linking: • 1st: Mouse anti-Axl (R&D, MAB154). • 2nd: Biotin-SP-conjugated AffiniPure goat anti-mouse IgG (H+L) (Jackson ImmunoResearch #115-065-003). • Fixing buffer: 4% formaldehyde in PBS. • Wash buffer: 0.1% TritonX-100 in PBS. • Quenching buffer: 3% H2O2, 0.1% Azide in wash buffer, Azide and hydrogen peroxide (H2O2) are added fresh. • Blocking buffer: 5% BSA in TBST (tris buffered saline plus 0.1% Tween 20). • Primary antibody: Rabbit anti-human Phospho-Akt antibody (Cell Signaling 9271): 1×250 diluted in blocking buffer. • Secondary antibody: HRP (horse radish peroxidase)-conjugated Goat anti-Rabbit secondary, stock solution: Jackson ImmunoResearch (Goat anti-Rabbit HRP, #111-035-144) 1:1 diluted in glycerol, store at −20° C. The working solution: 1×2000 dilution of stock in blocking buffer. • Chemiluminescent working solution (Pierce, 37030): SuperSignal ELISA (enzyme linked immunosorbant assay) Pico Chemiluminescent substrate. • Crystal Violet solution: Stock: 2.5% Crystal violet in methanol, filtered and kept at ambient temperature. The working solution: dilute the stock 1:20 with PBS immediately before use.
10% SDS: working solution: 5% SDS (sodium dodecylsulfate), diluted in PBS
A 96 well TC (tissue culture treated) plate was coated with 10 μg/mL poly-L-Lysine at 37° C. for 30 min, washed twice with PBS, and air-dried for 5 minutes before cells were added. Hela cells were seeded at 10,000 cells/well and the cells were starved in 100 μL starvation medium containing Axl/Fc for 24 hrs.
The cells were pre-treated with test compounds by adding 100 μL of 2× test compound to the starvation medium on the cells. The cells were incubated at 37° C. for 1 hr before stimulation.
The cells were stimulated by Axl-antibody cross-linking as follows: A 5×1st/2nd Axl antibody mixture was made (37.5 μg/mL 1st/100 μg/mL 2 nd) in starvation medium and nutated at 4° C. with thorough mixing for 1-2 hours for clustering. The resulting mix was warmed to 37° C. 50 μL of 5×Axl 1st/2nd of antibody cluster was added to the cells and the cells were incubated at 37° C. for 5 min.
After 5 minutes stimulation, the plate was flicked to remove medium and the plate was tapped onto paper towels. Formaldehyde (4.0% in PBS, 100 μL) was added to fix the cells and the cells were incubated at ambient temperature for 20 min without shaking.
The cells were washed with a plate washer buffer to remove the formaldehyde solution. The plate was flicked to removed excess wash buffer and tapped onto paper towels. Quenching buffer (100 μL) was added to each well and the cells were incubated at ambient temperature for 20 minutes without shaking.
The cells were washed with a plate washer buffer to remove the quenching buffer. Blocking buffer (100 μL) was added and the cells were incubated at ambient temperature for at least an hour with gentle shaking.
The cells were washed with a plate washer buffer and diluted primary antibody (50 μL) was added to each well (blocking buffer was added to the negative control wells instead). The plates were incubated overnight at 4° C. with gentle shaking.
The wash buffer was removed, diluted secondary antibody (100 μL) was added, and the cells were incubated at ambient temperature for 1 hour with gentle shaking. […]

Molecules are shown by their SMILES. Bounds are passed on as bounds.

As to `Cc1csc2c(-n3nc(Nc4cnc5c(c4)CC(C(=O)N4CCCC4)CC5)nc3N)nc(Cl)nc12` (stereo not shown) [compound 20, 1-(2-chloro-7-methylthieno [3,2-d]pyrimidine-4-yl)-N^3-(6-(pyrrolidin-1ylcarbonyl)-5,6,7,8-tetrahydro-quinolin-3-yl)-1H-1,2,4-triazole-3,5-diamine], the IC50 is under 1000 nM.
For the compound `Cc1csc2c(-n3nc(Nc4ccc(N5CCC(N6CCN(C)CC6)CC5)nc4)nc3N)nc(Cl)nc12` [compound 22], the IC50 is under 1000 nM.
Regarding `COc1cc2ncnc(-n3nc(Nc4ccc(N5CCC(N6CCCC6)CC5)nc4)nc3N)c2cc1OC` [compound 23, 1-(6,7-dimethoxy-quinazoline-4-yl)-N^3-(6-(4-pyrrolidin-1-ylpiperidin-1-yl)pyridine-3-yl)-1H-1,2,4-triazole-3,5-diamine], the IC50 was under 1000 nM.
The figure for `Cc1csc2c(-n3nc(Nc4ccc(N5CCN(C6CC7CCC6C7)CC5)nc4)nc3N)nc(Cl)nc12` (stereo not shown) [compound 24, 1-(2-chloro-7-methylthieno [3,2-d]pyrimidine-4-yl)-N^3-(6-(4-(bicyclo[2.2.1]heptan-2-yl)piperazin-1-yl)pyridin-3-yl)-1H-1,2,4-triazole-3,5-diamine] is under 1000 nM; for `Cc1csc2c(-n3nc(Nc4cnc5c(c4)CNCC5)nc3N)nc(Cl)nc12` [compound 25, 1-(2-chloro-7-methylthieno [3,2-d]pyrimidine-4-yl)-N^3-(5,6,7,8-tetrahydro-1,6-naphthyridin-3-yl)-1H-1,2,4-triazole-3,5-diamine] it is under 1000 nM; for `COc1cc2ncnc(-n3nc(Nc4ccc(N5CCC(N6CCCCC6)CC5)nc4)nc3N)c2cc1OC` [compound 27, 1-(6,7-dimethoxy-quinazoline-4-yl)-N^3-(6-(4-piperidin-1-ylpiperidin-1-yl)pyridine-3-yl)-1H-1,2,4-triazole-3,5-diamine] it is under 1000 nM.
The compound `Cc1csc2c(-n3nc(Nc4ccc(N5CCC(N6CCCCC6)CC5)nc4)nc3N)nc(Cl)nc12` [compound 28, 1-(2-chloro-7-methylthieno [3,2-d]pyrimidine-4-yl)-N^3-(6-(4-piperidin-1-ylpiperidin-1-yl)pyridine-3-yl)-1H-1,2,4-triazole-3,5-diamine] displayed an IC50 of under 1000 nM.
The value for `Cc1csc2c(-n3nc(Nc4cnc5c(c4)CC(NC(=O)CN(C)C)CC5)nc3N)nc(Cl)nc12` (stereo not shown) [compound 29, 1-(2-chloro-7-methylthieno [3,2-d]pyrimidin-4-yl)-N^3-(6-(2-(dimethyl-amino)-1-oxyethyl-amino)-5,6,7,8-tetrahydro-quinolin-3-yl)-1H-1,2,4-triazole-3,5-diamine] was under 1000 nM.
Turning to `Cc1csc2c(-n3nc(Nc4cnc5c(c4)CC(N)CC5)nc3N)nc(Cl)nc12` (stereo not shown) [compound 30, 1-(2-chloro-7-methylthieno [3,2-d]pyrimidin-4-yl)-N^3-(6-amino-5,6,7,8-tetrahydro-quinolin-3-yl)-1H-1,2,4-triazole-3,5-diamine], the IC50 is under 1000 nM.
The figure for `CN1CCN(c2ccc(Nc3nc(N)n(-c4nccc5ccccc45)n3)cn2)CC1` [compound 31, 1-(isoquinolin-1-yl)-N^3-(6-(4-methyl-piperazin-1-yl)pyridin-3-yl)-1H-1,2,4-triazole-3,5-diamine] is under 1000 nM; for `Cc1csc2c(-n3nc(Nc4cnc5[nH]ccc5c4)nc3N)nc(Cl)nc12` [compound 32, 1-(2-chloro-7-methylthieno [3,2-d]pyrimidin-4-yl)-N^3-(1H-pyrrolo[2,3-b]pyridin-5-yl)-1H-1,2,4-triazole-3,5-diamine] it is under 1000 nM.
Consider `Cc1csc2c(-n3nc(Nc4ccc(N5CCC(CN6CCCC6)CC5)nc4)nc3N)nc(Cl)nc12` [compound 33, 1-(2-chloro-7-methylthieno [3,2-d]pyrimidin-4-yl)-N^3-(6-(4-(pyrrolidin-1-ylmethyl)piperidin-1-yl)pyridin-3-yl)-1H-1,2,4-triazole-3,5-diamine], for which the IC50 was under 1000 nM.
With `COc1cc2ncnc(-n3nc(Nc4ccc(N5CCC(CN6CCCC6)CC5)nc4)nc3N)c2cc1OC` [compound 34], the IC50 is under 1000 nM.
The figure for `Cc1csc2c(-n3nc(Nc4ccc(N5CCC(N6CCCCCC6)CC5)nc4)nc3N)nc(Cl)nc12` [compound 35, 1-(2-chloro-7-methylthieno [3,2-d]pyrimidin-4-yl)-N^3-(6-(4-(azepan-1-yl)piperidin-1-yl)pyridin-3-yl)-1H-1,2,4-triazole-3,5-diamine] is under 1000 nM.
The value for `CCN(CC)CC1CCCN1c1ccc(Nc2nc(N)n(-c3nc(Cl)nc4c(C)csc34)n2)cn1` (stereo not shown) [compound 38, 1-(2-chloro-7-methylthieno [3,2-d]pyrimidin-4-yl)-N^3-(6-(2-diethylamino-methyl-pyrrolidin-1-yl)pyridin-3-yl)-1H-1,2,4-triazole-3,5-diamine] was under 1000 nM; that for `CCN(CC)CC1CCCN1c1ccc(Nc2nc(N)n(-c3ncnc4cc(OC)c(OC)cc34)n2)cn1` (stereo not shown) [compound 39, 1-(6,7-dimethoxy-quinazoline-4-yl)-N^3-(6-(2-diethyl-aminomethyl-pyrrolidin-1-yl)pyridin-3-yl)-1H-1,2,4-triazole-3,5-diamine] was under 1000 nM; that for `COc1cc2ncnc(-n3nc(Nc4ccc5sc(C(=O)N6CCN(CCN(C)C)CC6)cc5c4)nc3N)c2cc1OC` [compound 40, 1-(6,7-dimethoxy-quinazoline-4-yl)-N^3-(2-(1-(4-(2-(dimethyl-amino)ethyl)piperazin-1-yl)oxomethyl)benzo[b]thio-phen-5-yl)-1H-1,2,4-triazole-3,5-diamine] was 1000 to 10000 nM.
The figure for `Cc1cc(Nc2nc(N)n(-c3nc(Cl)nc4c(C)csc34)n2)cnc1N1CCC(N2CCCC2)CC1` [compound 41, 1-(2-chloro-7-methylthieno [3,2-d]pyrimidin-4-yl)-N^3-(6-(4-(pyrrolidin-1-yl)piperidin-1-yl)-5-methylpyridin-3-yl)-1H-1,2,4-triazole-3,5-diamine] is under 1000 nM; for `COc1cc2ncnc(-n3nc(Nc4cnc(N5CCC(N6CCCC6)CC5)c(C)c4)nc3N)c2cc1OC` [compound 42, 1-(6,7-dimethoxy-quinazoline-4-yl)-N^3-(6-(4-(pyrrolidin-1-yl)piperidin-1-yl)-5-methylpyridin-3-yl)-1H-1,2,4-triazole-3,5-diamine] it is under 1000 nM.

These data come from patent US8796259B2, “N3-heteroaryl substituted triazoles and N5-heteroaryl substituted triazoles useful as axl inhibitors” (Rigel Pharmaceuticals, Inc., priority 2006, dated 2014).
